Data reported in patent US8309602B2, “Multi-substituted diarylanilines as non-nucleoside HIV reverse transcriptase inhibitors, and preparation and use thereof” (Institute of Pharmacology and Toxicology, priority 2007, dated 2012).
≈ marks a conversion by molar mass, not a printed value. Like-named read-outs stand apart in the source and are kept apart here.

Key:
Format in all cases: cell-based
[1] = Cytotoxicity test of compound in MT-2 cells (XTT); settings: human, MT-2 cell line, uninfected cells
Procedure: (§1) Reference documents (Jiang, S., et al. Antimicrob. Agents Chemother. 2004, 48, 4349-4359). In 96 wells culture plate, 50 μl of different concentrations of compound solutions were mixed with PBS in the same volume, incubated at 37° C. for 30 minutes, added with 100 μL TM-2 (or H9) cell (1×10^5/mL, RPIM 1640 culture medium containing 10% serum), mixed uniformly, and incubated at 37° C. overnight.

[2] = system: HIV-1IIIB virus strains; assay: Assay of anti-HIV activity (MT-2 cell model), p24 antigen ELISA; settings: for EC50: MT-2 cell line infected with HIV-1IIIB, 50% virus inhibition; for SI (CC50/EC50): MT-2 cell line, ratio of cytotoxicity CC50 to activity EC50
Procedure: Reference documents (Jiang, S., et al. Antimicrob. Agents Chemother. 2004, 48, 4349-4359). In 96 wells culture plate, 50 μl of different concentrations of compound solutions were mixed with HIV-1IIIB virus strains (100 TCID50) in the same volume, incubated at 37° C. for 30 minutes, added with 100 μl TM-2 cell (1×10^5/mL, RPIM 1640 culture medium containing 10% serum), mixed uniformly, and incubated at 37° C. overnight. In the second day, 150 μl supernatant was sucked off and supplemented with fresh culture medium in the same volume, the compound solutions were incubated continuously at 37° C. for 3 days, and the cell pathology effect (CPE) was recorded in the fourth day. Then 100 μl cultured supernatant was sucked up to determine p24 antigen therein with 5% Triton X-100 lytic virus particles by using ELISA method. Briefly, HIVIG (2 μg/ml) was used to encapsulate enzyme standard plate, sealed with 1% fat-free milk, and then added with virus lytic solution, incubated at 37° C. for 60 minutes. After the plate was washed completely, anti-p24 monoclonal antibody-183-12H-5C, goat anti-mouse antibody labeled with biotin and horse radish peroxidase labeled with avidin were added. Then the compounds were developed with TMB, and the light density was tested at 450 nm. The virus inhibition concentration of 50% (EC50) of the compounds was calculated by using CalcuSyn software.

[3] = Cytotoxicity test of compound in H9 cells; settings: human, H9 cell line, uninfected cells
Procedure: (§2) Reference document (J. Med. Chem. 2004, 47, 756-760). Lymphocyte H9 was cultured at 37° C. in culture medium 1640 and 5% CO2. […] The cultured H9 cells were divided into two parts, wherein one of the parts was infected with HIV virus (IIIB) (m.i.o. 0.1-0.01 infectious Units/cell), which was used for assaying activity. The other part of the cells was not added with viruses but only with culture medium, which was used for assaying toxicity. The two parts of the cells were cultured under completely identical conditions (37° C., 5% CO2) for 4 hours, washed with fresh culture medium for three times, and then were added respectively to the prepared tested samples of different concentrations or to culture medium (the latter was positive infection control or negative drug control), and meanwhile AZT was used as positive drug control. All these cells were cultured at 37° C. in 5% CO2 for 4 days. […] The part of the cells without viruses added were tested by the method of counting cells to assay the toxicity of the sample, expressed using CC50. […] Reference documents (Jiang, S., et al. Antimicrob. Agents Chemother. 2004, 48, 4349-4359). In 96 wells culture plate, 50 μl of different concentrations of compound solutions were mixed with PBS in the same volume, incubated at 37° C. for 30 minutes, added with 100 μL TM-2 (or H9) cell (1×10^5/mL, RPIM 1640 culture medium containing 10% serum), mixed uniformly, and incubated at 37° C. overnight.

[4] = system: HIV virus (IIIB); assay: Assay of anti-HIV activity (H9 cell model), P24 antigen ELISA; settings: for SI (CC50/EC50): H9 cell line, ratio of cytotoxicity CC50 to activity EC50; for EC50: H9 cell line infected with HIV (IIIB), 50% inhibition of virus replication
Procedure: Reference document (J. Med. Chem. 2004, 47, 756-760). Lymphocyte H9 was cultured at 37° C. in culture medium 1640 and 5% CO2. The tested compound was initially dissolved in DMSO, and then diluted with culture medium to conventional screening concentration: 100, 20, 4, 0.8 μg/mL. The cultured H9 cells were divided into two parts, wherein one of the parts was infected with HIV virus (IIIB) (m.i.o. 0.1-0.01 infectious Units/cell), which was used for assaying activity. The other part of the cells was not added with viruses but only with culture medium, which was used for assaying toxicity. The two parts of the cells were cultured under completely identical conditions (37° C., 5% CO2) for 4 hours, washed with fresh culture medium for three times, and then were added respectively to the prepared tested samples of different concentrations or to culture medium (the latter was positive infection control or negative drug control), and meanwhile AZT was used as positive drug control. All these cells were cultured at 37° C. in 5% CO2 for 4 days. In the fourth day, the cell membranes of the cells infected by viruses were removed, and the cytosol was tested by P24 antigen ELISA method to assay the activity of the sample, expressed using EC50. EC50 was an effective concentration when virus replication was inhibited by 50%. The part of the cells without viruses added were tested by the method of counting cells to assay the toxicity of the sample, expressed using CC50. CC50 was a concentration when growth cells were killed by 50%.

[5] = system: MT-2 cells; assay: Cytotoxicity test of compound in MT-2 cells (XTT); settings: MT-2 cell line, uninfected cells
Procedure: as §1

[6] = system: H9 cells; assay: Cytotoxicity test of compound in H9 cells; settings: H9 cell line, uninfected cells
Procedure: as §2

[7] = Human immunodeficiency virus 1, MT2, read-out: EC50
[8] = Human immunodeficiency virus 1, read-out: EC50

Compound | CC50 at 4 days [1] | EC50 [2, 7] | SI (CC50/EC50) [2] | CC50 at 4 days [3] | SI (CC50/EC50) [4] | EC50 [4, 8] | CC50 [5] | EC50 [2] | CC50 [6] | EC50 [4] | CC50 at 4 days ([1]; MT-2 cells) | CC50 at 4 days ([3]; H9 lymphocyte cells)
Cc1cc(Br)cc(C)c1Oc1cc(Nc2ccc(C#N)cc2)c([N+](=O)[O-])cc1[N+](=O)[O-] [Compound I-1, N^1-(4′-cyanophenyl)-5-(2′,6′-dimethyl-4′-bromophenoxy)-2,4-dinitroaniline] | > 100 µg/mL | 0.14 µg/mL (≈ 0.29 µM) | >714 | > 25 µg/mL | >234 | 0.11 µg/mL (≈ 0.228 µM) |  |  |  |  |  | 
Cc1cccc(C)c1Oc1cc(Nc2ccc(C#N)cc2)c([N+](=O)[O-])cc1[N+](=O)[O-] [Compound I-2, N^1-(4′-cyanophenyl)-5-(2′,6′-dimethylphenoxy)-2,4-dinitroaniline] | > 100 µg/mL | 3.71 µg/mL (≈ 9.17 µM) | >27 | > 25 µg/mL | >113 | 0.22 µg/mL (≈ 0.544 µM) |  |  |  |  |  | 
Cc1cc(C)c(Nc2cc(Nc3ccc(C#N)cc3)c([N+](=O)[O-])cc2[N+](=O)[O-])c(C)c1 [Compound I-3, N^1-(4′-cyanophenyl)-2,4-dinitro-N^5-(2′,4′,6′-trimethylphenyl)-benzene-1,5-diamine] | > 100 µg/mL | 0.18 µg/mL (≈ 0.431 µM) | >556 | > 25 µg/mL | >455 | 0.055 µg/mL (≈ 0.132 µM) |  |  |  |  |  | 
CC(=O)ON(c1cc(Nc2ccc(C#N)cc2)c([N+](=O)[O-])cc1[N+](=O)[O-])c1c(C)cc(C)cc1C [Compound I-4, N^1-(4′-cyanophenyl)-2,4-dinitro-[N^5-acetoxy-N^5-(2′,4′,6′-trimethylphenyl)]benzene-1,5-diamine] |  |  | 23.45 |  | >14.15 |  | 61.21 µg/mL (≈ 129 µM) | 2.61 µg/mL (≈ 5.49 µM) | >25 µg/mL | 1.77 µg/mL (≈ 3.72 µM) |  | 
Cc1cc(Br)cc(C)c1Oc1cc(Nc2ccc(C#N)cc2)c(N)cc1[N+](=O)[O-] [Compound I-5, 4-(4′-Bromo-2′,6′-dimethylphenoxy)-N^2-(4′-cyanophenyl)-5-nitrobenzene-1,2-diamine] |  | < 0.02 µg/mL | >3054 |  | >1000 | < 0.025 µg/mL |  |  |  |  | 61.1 µg/mL (≈ 135 µM) | > 25 µg/mL
Cc1cc(C#N)cc(C)c1Oc1ccc([N+](=O)[O-])c(Nc2ccc(C#N)cc2)c1 [Compound I-6, N^1-(4′-cyanophenyl)-5-(4′-cyano-2′,6′-dimethylphenoxy)-2-nitroaniline] |  | 6.63 µg/mL (≈ 17.2 µM) | 8.53 |  | >312 | 0.08 µg/mL (≈ 0.208 µM) |  |  |  |  | 56.5 µg/mL (≈ 147 µM) | > 25 µg/mL
Cc1cccc(C)c1Oc1ccc([N+](=O)[O-])c(Nc2ccc(C#N)cc2)c1 [Compound I-7, N^1-(4′-cyanophenyl)-5-(2′,6′-dimethylphenoxy)-2-nitroaniline] |  | 1.18 µg/mL (≈ 3.28 µM) | >85 |  | >33 | 0.76 µg/mL (≈ 2.11 µM) |  |  |  |  | > 100 µg/mL | > 25 µg/mL
Cc1cc(Br)cc(C)c1Oc1cc(Nc2ccc(C#N)cc2)c(N)cc1N [Compound I-8, 5-(4′-Bromo-2′,6′-dimethylphenoxy)-N^1-(4′-cyanophenyl)benzene-1,2,4-triamine] |  | 0.13 µg/mL (≈ 0.307 µM) | 132 |  | 239 | 0.068 µg/mL (≈ 0.161 µM) |  |  |  |  | 17.2 µg/mL (≈ 40.6 µM) | 16.2 µg/mL (≈ 38.4 µM)
Cc1cc(C#N)cc(C)c1Oc1cc(Nc2ccc(C#N)cc2)c(N)cc1N [Compound I-10, N^1-(4′-cyanophenyl)-5-(4′-Cyano-2′,6′-dimethylphenoxy)benzene-1,2,4-triamine] |  | 0.008 µg/mL (≈ 0.0217 µM) | 2425 |  | >820 | < 0.025 µg/mL |  |  |  |  | 19.4 µg/mL (≈ 52.5 µM) | 20.5 µg/mL (≈ 55.5 µM)
Cc1cc(C#N)cc(C)c1Oc1cc(Nc2ccc(C#N)cc2)c(N)cc1[N+](=O)[O-] [Compound I-11, 5-(4′-Cyano-2′,6′-dimethylphenoxy)-N^1-(4′-cyanophenyl)-4-nitrobenzene-1,2-diamine] |  | 0.013 µg/mL (≈ 0.0325 µM) | 4715 |  | >1000 | < 0.025 µg/mL |  |  |  |  | 61.3 µg/mL (≈ 153 µM) | > 25 µg/mL
Cc1cc(Br)cc(C)c1Oc1ccc(N)c(Nc2ccc(C#N)cc2)c1 [Compound I-13, 4-(4′-Bromo-2′,6′-dimethylphenoxy)-N^2-(4′-cyanophenyl)benzene-1,2-diamine] |  | 0.16 µg/mL (≈ 0.392 µM) | 91 |  | 128 | 0.134 µg/mL (≈ 0.328 µM) |  |  |  |  | 14.5 µg/mL (≈ 35.5 µM) | 17.2 µg/mL (≈ 42.1 µM)
Cc1cc(C)c(Oc2cc(Nc3ccc(C#N)cc3)c([N+](=O)[O-])cc2[N+](=O)[O-])c(C)c1 [Compound I-14, N^1-(4′-cyanophenyl)-5-(2′,4′,6′-trimethylphenoxy)-2,4-dinitroaniline] | 28.8 µg/mL (≈ 68.7 µM) | 0.7 µg/mL (≈ 1.67 µM) | 41.09 | > 25 µg/mL | >174 | 0.144 µg/mL (≈ 0.344 µM) |  |  |  |  |  | 
